In patent US6835382B2, “Ii peptide therapeutics to enhance antigen presentation” (University of Massachusetts, priority 1996, dated 2004):

System: murine E^d MHC class II allele
Test: simultaneous assay, E^d allele (A20 APC, G28.C9 T hybridoma, HEL106-116; HT-2 [3H]TdR readout)
Assay type: cell-based
Conditions: simultaneous assay, Table 14, versus AE114 / AE301; E^d and E^k
Experimental: Examples 1-4 (Tables 1-18) will be briefly considered in order to establish the concept of tolerance discussed above. These examples describe experimental results observed in the so-called “simultaneous” assay. In the simultaneous assay four principle components are cultured together for a 24 hour period. […] The degree of stimulation of that second, indicator cell by the interleukins which had been released from the activated T cell hybridoma in the primary culture is measured by quantitating tritiated thymidine deoxyribose {[^3H]TdR} uptake into the DNA of the HT-2 indicator cells of that second culture.
In the “simultaneous assay” the four components of the assay are cultured together for a 24 h period. […] The degree of stimulation of that second, indicator cell by the interleukins which had been released from the activated T cell hybridoma in the primary culture is measured by quantitating tritiated thymidine deoxyribose {[^3H]TdR} uptake into the DNA of the HT-2 indicator cells of that second culture. […]

Ac-LR (mL) KLPK-NH2 [AE302]
reduction in activity on substitution of 3-methionine by N-methyl leucine: 50-70%
